Assay results as given in PMC10248798, “Arabidopsis nicotianamine synthases comprise a common core-NAS domain fused to a variable autoinhibitory C terminus” (The Journal of Biological Chemistry, 2023).

Legend:
Assay type in all cases: biochemical
MetK = molecular target: T1, MetK (Escherichia coli, UniProt P0A817); test: one-pot coupled synthesis of nicotianamine with MtnN and AtNAS1; conditions: coupled to AtNAS1 and MtnN
T1 construct: full length, C-terminal His6 tag (pET-21b), Ni-NTA purified from E. coli
T1 sequence (P0A817 2-384): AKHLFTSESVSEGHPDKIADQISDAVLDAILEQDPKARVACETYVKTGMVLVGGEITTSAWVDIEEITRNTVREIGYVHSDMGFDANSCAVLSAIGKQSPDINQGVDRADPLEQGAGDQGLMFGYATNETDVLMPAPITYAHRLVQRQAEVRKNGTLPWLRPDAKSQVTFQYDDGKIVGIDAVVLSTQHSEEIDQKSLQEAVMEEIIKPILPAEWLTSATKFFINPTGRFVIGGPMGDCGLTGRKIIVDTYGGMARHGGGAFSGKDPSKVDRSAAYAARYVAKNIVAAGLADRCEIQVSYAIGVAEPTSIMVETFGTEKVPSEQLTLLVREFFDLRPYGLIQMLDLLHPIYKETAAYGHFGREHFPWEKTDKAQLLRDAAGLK

MtnN = molecular target: T2, MtnN (Escherichia coli, UniProt P0AF12); test: TLC; conditions: 2.5 mM MTA, 50 mM Tris/HCl pH 8.7, 30 °C
T2 construct: full length, C-terminal His6 tag (pET-21b), Ni-NTA purified from E. coli

AdeD = molecular target: T3, AdeD (Escherichia coli, UniProt P31441); test: TLC; conditions: 3 mM adenine, 50 mM Tris/HCl pH 8.7, 30 °C
T3 construct: gene ade; full length, C-terminal His6 tag (pET-21b), Ni-NTA purified from E. coli

AtNAS4 ΔC47 = molecular target: T4, AtNAS4 ΔC47 (Arabidopsis thaliana, UniProt Q9C7X5); test: coupled spectrophotometric assay (MtnN/AdeD, A265); conditions: 0.125 mM SAM, 50 mM Tris-HCl pH 8.7, 37 °C
T4 construct: gene NAS4; core-NAS domain, 47 C-terminal residues removed, C-terminal His6 tag (pET-21b), E. coli
T4 sequence (Q9C7X5 1-277): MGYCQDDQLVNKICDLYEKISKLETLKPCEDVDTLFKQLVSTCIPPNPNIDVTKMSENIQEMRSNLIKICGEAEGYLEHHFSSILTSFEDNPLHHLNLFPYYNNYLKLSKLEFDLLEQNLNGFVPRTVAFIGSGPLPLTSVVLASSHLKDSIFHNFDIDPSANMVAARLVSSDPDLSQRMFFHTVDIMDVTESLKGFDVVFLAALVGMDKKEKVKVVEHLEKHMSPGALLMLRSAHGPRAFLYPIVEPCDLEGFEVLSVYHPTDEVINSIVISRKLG

AtNAS3 ΔC42 = molecular target: T5, AtNAS3 ΔC42 (Arabidopsis thaliana, UniProt O80483); test: coupled spectrophotometric assay (MtnN/AdeD, A265); conditions: 0.125 mM SAM, 50 mM Tris-HCl pH 8.7, 37 °C
T5 construct: gene NAS3; core-NAS domain, 42 C-terminal residues removed, C-terminal His6 tag (pET-21b, NheI/NotI), E. coli
T5 sequence (O80483 1-278): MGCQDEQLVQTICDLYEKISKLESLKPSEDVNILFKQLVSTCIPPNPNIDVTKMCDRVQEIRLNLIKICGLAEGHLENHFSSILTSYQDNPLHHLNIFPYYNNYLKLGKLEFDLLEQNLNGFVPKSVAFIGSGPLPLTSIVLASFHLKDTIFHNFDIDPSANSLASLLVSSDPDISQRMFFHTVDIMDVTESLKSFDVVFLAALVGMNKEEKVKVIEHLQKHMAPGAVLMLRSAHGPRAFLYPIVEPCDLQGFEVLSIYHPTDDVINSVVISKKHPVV

T3 sequence (P31441 whole entry): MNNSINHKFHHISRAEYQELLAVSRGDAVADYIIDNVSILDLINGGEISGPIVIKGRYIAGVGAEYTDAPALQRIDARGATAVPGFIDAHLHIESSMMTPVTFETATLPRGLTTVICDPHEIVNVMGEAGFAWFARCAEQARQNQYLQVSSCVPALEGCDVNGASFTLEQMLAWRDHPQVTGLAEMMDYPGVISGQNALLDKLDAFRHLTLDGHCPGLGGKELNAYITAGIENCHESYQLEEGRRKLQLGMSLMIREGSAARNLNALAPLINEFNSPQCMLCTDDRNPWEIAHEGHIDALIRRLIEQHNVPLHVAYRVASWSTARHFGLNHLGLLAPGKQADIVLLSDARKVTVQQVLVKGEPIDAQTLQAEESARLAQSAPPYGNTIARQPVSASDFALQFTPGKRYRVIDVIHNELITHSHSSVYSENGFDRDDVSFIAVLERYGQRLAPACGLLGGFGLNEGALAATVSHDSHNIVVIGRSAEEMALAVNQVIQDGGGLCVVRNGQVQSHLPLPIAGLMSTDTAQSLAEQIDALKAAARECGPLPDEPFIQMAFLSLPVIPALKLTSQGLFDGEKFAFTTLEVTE
T2 sequence (P0AF12 whole entry): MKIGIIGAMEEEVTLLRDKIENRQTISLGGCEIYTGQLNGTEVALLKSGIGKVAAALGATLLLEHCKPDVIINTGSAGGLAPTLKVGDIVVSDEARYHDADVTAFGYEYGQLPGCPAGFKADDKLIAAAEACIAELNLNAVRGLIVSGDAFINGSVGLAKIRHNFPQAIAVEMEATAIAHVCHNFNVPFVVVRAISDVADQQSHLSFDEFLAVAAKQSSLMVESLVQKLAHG

Nc1ncnc2c1ncn2[C@@H]1O[C@H](COP(=O)(O)OP(=O)(O)OP(=O)(O)O)[C@@H](O)[C@H]1O [ATP]
one-pot coupled synthesis of nicotianamine with MtnN and AtNAS1 (MetK; co-substrate L-methionine): we combined MetK with MtnN and AtNAS1 for the one-pot synthesis of NA from ATP

CSC[C@H]1O[C@@H](n2cnc3c(N)ncnc32)[C@H](O)[C@@H]1O [MTA]
TLC (MtnN): MtnN- and AdeD, were active in NAS reaction buffer when assayed individually with their respective substrates

Nc1ncnc2[nH]cnc12 [adenine]
TLC (AdeD): MtnN- and AdeD, were active in NAS reaction buffer when assayed individually with their respective substrates

C[S+](CC[C@H](N)C(=O)O)C[C@H]1O[C@@H](n2cnc3c(N)ncnc32)[C@H](O)[C@@H]1O (stereo partly drawn) [SAM]
coupled spectrophotometric assay (MtnN/AdeD, A265) (AtNAS4 ΔC47): The truncated variants of AtNAS3 and AtNAS4 also showed strongly increased activities
coupled spectrophotometric assay (MtnN/AdeD, A265) (AtNAS3 ΔC42): The truncated variants of AtNAS3 and AtNAS4 also showed strongly increased activities

CSCC[C@H](N)C(=O)O [L-methionine]
one-pot coupled synthesis of nicotianamine with MtnN and AtNAS1 (MetK; co-substrate ATP): we combined MetK with MtnN and AtNAS1 for the one-pot synthesis of NA from ATP
